Test results from paper PMC3966047, “Analysis of the minimal specificity of caspase-2 and identification of Ac-VDTTD-AFC as a caspase-2-selective peptide substrate” (Bioscience Reports, 2014).
“Also recorded” adds a separate entry of the source. Read-outs that look alike come from different tables or passages of the source. The star is where a group is joined. AFC = O=c1cc(C(F)(F)F)c2ccc(N*)cc2o1

Experiments:
caspase-2 [1] = details: aldehyde inhibitors; cited from earlier work
Description: (§1) Research into caspase-2 biology has been hampered by a dearth of selective reagents capable of distinguishing between caspases-2 and -3. Peptides and inhibitors based on the sequence VDVAD are marketed as ‘caspase-2-specific’ but also react strongly with caspase-3.

caspase-3 [2] = target: T1, caspase-3 (Homo sapiens, UniProt P42574); details: aldehyde inhibitors; cited from earlier work
T1 construct: made in house; host or cells: E. coli BL21(DE3)pLysS
T1 sequence (P42574 29-175 limits assumed): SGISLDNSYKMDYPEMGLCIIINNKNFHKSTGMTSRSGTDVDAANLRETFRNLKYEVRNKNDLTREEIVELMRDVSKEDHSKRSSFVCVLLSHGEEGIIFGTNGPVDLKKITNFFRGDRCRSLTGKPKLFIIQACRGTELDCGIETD
T1 sequence (P42574 176-277 limits assumed): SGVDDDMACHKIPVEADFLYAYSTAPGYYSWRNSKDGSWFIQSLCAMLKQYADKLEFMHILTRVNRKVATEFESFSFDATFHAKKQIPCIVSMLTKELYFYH
Description: as §1

caspase-2 [3] = test: Fluorogenic peptide cleavage by purified caspase-2 (AFC release); type: biochemical
Protocol: (§2) Caspases-2, -3 and -8 were purified using NiNTA resin (Qiagen) from BL21(DE3)pLysS bacteria (Novagen/Merck) transformed with pET23a–caspase-2^Δ1−149 [44], pET23a–caspase-3 [54] or pET15b–caspase-8^Δ1−216 plasmids. Induction conditions were: caspase-2, 0.4 mM IPTG (isopropyl β-D-thiogalactoside), 2 h 37°C; caspase-3, 0.2 mM IPTG, 3 h 30°C; caspase-8, 1 mM IPTG, 4 h 25°C. Caspases were active site-titrated using zVAD-fmk (Merck). ArcticExpress DE3 bacteria (Agilent Technologies) were transformed with the pET23a Bid expression plasmids described above, induced for 48 h at 10°C using 1 mM IPTG, then the His6-tagged Bid proteins were purified using NiNTA resin (Qiagen). Recombinant proteins were quantitated using the Bicinchoninic acid protein assay kit (Sigma). Runx1 proteins were synthesized using the TNT T7 quick coupled transcription/translation system (Promega) with non-radioactive methionine, using intact Runx1–pET23a plasmids as templates. The concentration of Runx1 proteins was determined by quantitative anti-His6 immunoblotting, using purified AcP35–His6 [56] as a standard.
(§3) Caspases were pre-activated for 30 min at 37°C in their preferred buffers, then diluted and mixed with fluorogenic peptide substrates. Fluorescence (excitation 410 nm, emission 500 nm) was measured every 10–60 s for up to 1 h using a FluoStar Galaxy (BMG Labtech). The maximal slope of each curve was calculated. A standard curve, using free AFC (Sigma), was used to convert fluorescence emissions into concentration of AFC produced during the cleavage reactions. Prism 5.0 software was used to determine kcat and KM from three to four independent experiments, as previously described. Ac-DEVD-AFC and Ac-VDVAD-AFC were purchased from Enzo Life Sciences. The custom substrates Ac-VDTTD-AFC and Ac-VDVPD-AFC were synthesized by 21st Century Biochemicals. 150 nM Bid or 100 nM Runx1 proteins were incubated with specified concentrations of caspases in their preferred buffers for 1 h (Runx1) or 0.5 h (Bid variants) at 37°C, then subjected to SDS–PAGE and immunoblotting with anti-Bid (#AF860 R&D Systems) or anti-His6 antibodies (#A00186 GenScript). Secondary antibodies were anti-mouse-HRP (#A9044, Sigma) or anti-goat-HRP (#6300-05, Southern Biotech). The SuperSignal West Dura Substrate (Thermo Scientific) was used to detect signals and quantitation of sub-saturated exposures was performed using a Syngene G:Box and Image Lab 3.0 software (BioRad). Linear regression was used to determine the caspase concentration, which cleaved half of each protein.

caspase-3 [4] = target: T1, caspase-3; test: Fluorogenic peptide cleavage by purified caspase-3 (AFC release); type: biochemical
Protocol: as §2
as §3, with “150 nM Bid or 100 nM Runx1 proteins were incubated with specified concentrations of caspases in their preferred buffers for 1 h (Runx1) or 0.5 h (Bid variants) at 37°C, then subjected to SDS–PAGE and immunoblotting with anti-Bid (#AF860 R&D Systems) or anti-His6 antibodies (#A00186 GenScript). Secondary antibodies were anti-mouse-HRP (#A9044, Sigma) or anti-goat-HRP (#6300-05, Southern Biotech).” left out, “Linear regression was used to determine the caspase concentration, which cleaved half of each protein.” left out

[5] = tested on: auto-activating caspase-2 in HEK-293T cell lysate; test: Fluorogenic peptide cleavage by lysates of HEK-293T cells expressing auto-activating caspase-2; type: biochemical, human embryonic kidney cells; details: HEK-293T lysates with auto-activating caspase-2 or -3, 0.1 mM substrate
Protocol: as §3
HEK-293T cells [human embryonic kidney cells expressing the large T-antigen of SV40 (simian virus 40)] were cultured, transfected, harvested and lysed as described except that protease inhibitors were not used. Each lysate was mixed with the appropriate fluorogenic substrate (0.1 mM) in caspase buffer, and fluorescence was monitored as outlined above.

caspase-2 [6] = details: cited from earlier work
Description: It seems likely that identification of caspase-2 substrates may provide valuable clues to its biological role. […] Apoptotic signalling by caspase-2 has been proposed to result from its processing of the pro-apoptotic Bcl-2 relative Bid. […] Runx1 plays a critical role in haematopoiesis, and Runx1 translocations or other mutations occur frequently in myeloid leukaemias, and less commonly in other cancer types.

caspase-2 [7] = test: Runx1 cleavage by caspase-2 (anti-His6 immunoblot); type: biochemical; details: 100 nM in vitro-translated Runx1, 1 h, 37°C
Protocol: as §2, with “Runx1 proteins were synthesized using the TNT T7 quick coupled transcription/translation system (Promega) with non-radioactive methionine, using intact Runx1–pET23a plasmids as templates.” left out
(§4) Caspases were pre-activated for 30 min at 37°C in their preferred buffers, then diluted and mixed with fluorogenic peptide substrates. Fluorescence (excitation 410 nm, emission 500 nm) was measured every 10–60 s for up to 1 h using a FluoStar Galaxy (BMG Labtech). The maximal slope of each curve was calculated. A standard curve, using free AFC (Sigma), was used to convert fluorescence emissions into concentration of AFC produced during the cleavage reactions. […]

caspase-3 [8] = target: T1, caspase-3; test: Runx1 cleavage by caspase-3 (anti-His6 immunoblot); type: biochemical; details: 100 nM in vitro-translated Runx1, 1 h, 37°C
Protocol: as §2, with “Runx1 proteins were synthesized using the TNT T7 quick coupled transcription/translation system (Promega) with non-radioactive methionine, using intact Runx1–pET23a plasmids as templates.” left out
as §4

caspase-8 [9] = test: Runx1 cleavage by caspase-8 (anti-His6 immunoblot); type: biochemical; details: 100 nM in vitro-translated Runx1, 1 h, 37°C
Protocol: as §2, with “Runx1 proteins were synthesized using the TNT T7 quick coupled transcription/translation system (Promega) with non-radioactive methionine, using intact Runx1–pET23a plasmids as templates.” left out
as §4

caspase-2 [10] = test: Bid protein cleavage by caspase-2 (anti-Bid immunoblot); type: biochemical; details: 150 nM Bid protein, 0.5 h, 37°C, preferred buffer, from caspase concentration cleaving half of the substrate
Protocol: as §2, with “Runx1 proteins were synthesized using the TNT T7 quick coupled transcription/translation system (Promega) with non-radioactive methionine, using intact Runx1–pET23a plasmids as templates.” left out
as §4

caspase-3 [11] = target: T1, caspase-3; test: Bid protein cleavage by caspase-3 (anti-Bid immunoblot); type: biochemical; details: 150 nM Bid protein, 0.5 h, 37°C
Protocol: as §2, with “Runx1 proteins were synthesized using the TNT T7 quick coupled transcription/translation system (Promega) with non-radioactive methionine, using intact Runx1–pET23a plasmids as templates.” left out
as §4

caspase-8 [12] = test: Bid protein cleavage by caspase-8 (anti-Bid immunoblot); type: biochemical; details: 150 nM Bid protein, 0.5 h, 37°C
Protocol: as §2, with “Runx1 proteins were synthesized using the TNT T7 quick coupled transcription/translation system (Promega) with non-radioactive methionine, using intact Runx1–pET23a plasmids as templates.” left out
as §4

caspase-8 [13] = details: subsequent data; cited from earlier work
Description: It seems likely that identification of caspase-2 substrates may provide valuable clues to its biological role. […] Apoptotic signalling by caspase-2 has been proposed to result from its processing of the pro-apoptotic Bcl-2 relative Bid.

[14] = preferred buffer, anti-Bid immunoblot, from caspase concentration cleaving half of the substrate

Molecule: Ac-VDVPD-aldehyde
- inhibition of caspase-2 compared with caspase-3 (in words) (caspase-2 [1]): inhibited caspases-2 and -3 with similar potencies
- inhibition of caspase-3 compared with caspase-2 (in words) (caspase-3 [2]): inhibited caspases-2 and -3 with similar potencies

Molecule: Ac-VDVPD-{AFC} [custom fluorogenic substrate based on the Runx1 cleavage site]
- cleavage by caspase-2 (in words) (caspase-2 [3]; purified caspase-2): enhanced sensitivity to caspase-2 relative to Ac-VDVAD-AFC; also recorded: cleaved by caspase-2 slightly better than Ac-VDVAD
- selectivity for caspase-2 relative to caspase-3 (in words) (caspase-2 [3]; purified caspases-2 and -3): less specific than Ac-VDVAD-AFC for caspase-2 relative to caspase-3; also recorded: lacked the sought-after selectivity for caspase-2 over caspase-3
- cleavage by caspase-3 (in words) (caspase-3 [4]): proteolysed this substrate more efficiently than Ac-VDVAD-AFC
- caspase-2 versus caspase-3 selectivity in cell lysates (in words) [5]: cleaved at similar rates in cell lysates containing active caspases-2 or -3

Molecule: Cux1: transcription factor Cux1
- cleavage by caspase-2 (in words) (caspase-2 [6]): efficiently cleaved

Molecule: EIF4B: translation initiation factor EIF4B
- cleavage by caspase-2 versus other caspases (in words) (caspase-2 [6]; degradomics, lysates): more efficiently cleaved by caspase-2

Molecule: Runx1^DVPG: P1 mutant of Runx1
- Runx1 cleavage by caspase-2 (in words) (caspase-2 [7]): yielded a larger product
- Runx1 cleavage by caspase-3 (in words) (caspase-3 [8]): yielded a larger product
- Runx1 cleavage by caspase-8 (in words) (caspase-8 [9]): yielded a larger product

B1: wild-type Bid: Bid protein bearing the native LQTD cleavage site (protein, UniProt P55957 1-195, looked up)
BH3-interacting domain death …: MDCEVNNGSSLRDECITNLLVFGFLQSCSDNSFRRELDALGHELPVLAPQWEGYDELQTDGNRSSHSRLGRIEADSESQEDIIRNIARHLAQVGDSMDRSIPPGLVNGLALQLRNTSRSEEDRNRDLATALEQLLQAYPRDMEKEKTMLVLALLLAKKVASHTPSLLRDVFHTTVNFINQNLRTYVRSLARNGMD
- second-order rate constant (estimate of kcat/KM), caspase-2 (caspase-2 [10]): 3200 M⁻¹ s⁻¹
- Bid cleavage by caspase-3 (in words) (caspase-3 [11]; immunoblot): barely sensitive to proteolysis by even high concentrations of caspase-3
- second-order rate constant (estimate of kcat/KM), caspase-3 (caspase-3 [11]; [14]): 160 M⁻¹ s⁻¹
- processing efficiency by caspase-8 relative to caspase-2 (caspase-8 [12]): about seven
- second-order rate constant (estimate of kcat/KM), caspase-8 (caspase-8 [12]; [14]): 22000 M⁻¹ s⁻¹
- Bid cleavage by caspases-2 and -8 (in words) (caspase-2 [6]; initial results): could cleave Bid with similar efficiency
- Bid cleavage by caspase-8 compared with caspase-2 (in words) (caspase-8 [13]): the processing by caspase-8 was more efficient
